Experimental findings from ChEMBL document CHEMBL1201862, “PubChem BioAssay data set” (2004) are described below.

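Assay format: 96-well plates, 48-hour exposure. Abbreviation: GI50, concentration required for 50% inhibition of growth.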 Activity calls are given as the source filed them. No stated cut-off is given here; in the data, active = GI50 up to about 1.1 µM and inactive = higher. Square brackets hold non-standard residues; d marks the D form. Peptide text beside a SMILES is read from it. * marks the point of attachment. ξ: configuration not given here. NMeN = CN[C@@H](CC(N)=O)C(=O)O; NMeV = CN[C@H](C(=O)O)C(C)C; ξNMeV = CNC(C(=O)O)C(C)C; Boc = CC(C)(C)OC(=O)*; ξNMeA = CNC(C)C(=O)O A value given as a limit tells only on which side of the number the result lay.

Test systems include DMS-273; XF498; SNB-78; M19-MEL; DLD-1; RXF 631; LXFL 529; KM-20L2; HOP-18.
Common to all, as to experiment: NCI tumour cell line growth inhibition, 48 h

With `c1cc2c(cnc3cscc32)s1`, the GI50 is > 100 µM (inactive) in the assay with DMS-273; 11 µM (inactive) in the assay with XF498; > 100 µM (inactive) with SNB-78; > 100 µM (inactive) with M19-MEL; > 100 µM (inactive) with DLD-1; > 100 µM (inactive) in the assay with RXF 631.
For `COc1cc(C(C)c2cc3c(cc2OCCCCOc2cc4c(cc2C(C)c2cc(OC)c(OC)c(OC)c2)OCO4)OCO3)cc(OC)c1OC` (centres undefined), the GI50 with XF498 was 27.6 µM (inactive); in the assay on LXFL 529, 33.3 µM (inactive); in the assay with SNB-78, 20.1 µM (inactive); with KM-20L2, > 100 µM (inactive); in the assay on M19-MEL, 38.4 µM (inactive); in the assay on DLD-1 it was 35.6 µM (inactive). Besides, the GI50 in the assay on RXF 631 was 39.7 µM (inactive).
With `CC1CC(c2ccc([N+](=O)[O-])cc2)=Nc2ccccc2S1` (centres undefined), the GI50 in the assay on DMS-273 is 20.2 µM (inactive); in the assay on XF498, 31.6 µM (inactive); in the assay with LXFL 529, 13.3 µM (inactive); in the assay with HOP-18, > 100 µM (inactive); with SNB-78, 67.5 µM (inactive); with KM-20L2 it was 18.4 µM (inactive). The results for the GI50 with M19-MEL and in the assay with DLD-1 were 13.8 µM (inactive) and 12.9 µM (inactive), respectively.
In the case of `N#Cc1cccc(/C=N/C23CC4CC(CC(C4)C2)C3)c1`, the GI50 in the assay on DMS-273, in the assay with SNB-78, with KM-20L2 and in the assay with M19-MEL was > 100 µM (inactive) throughout.
For the compound `CCOC(=O)C1=C(C)N(NC(=O)c2ccccc2)C2(O)CCCC12C(=O)OCC` (centres undefined), the GI50 in the assay on DMS-273 is > 100 µM (inactive); in the assay with XF498, 55 µM (inactive); in the assay on LXFL 529 it was > 100 µM (inactive); with KM-20L2, > 100 µM (inactive); in the assay on M19-MEL, > 100 µM (inactive); in the assay with RXF 631 it was > 100 µM (inactive).
In the case of `Cc1ccc(NS(=O)(=O)c2cc(C(C)(C)C)ccc2OCCOCCOCCOc2ccc(C(C)(C)C)cc2S(=O)(=O)Nc2ccc(C)cc2)cc1`, the GI50 with DMS-273, in the assay on HOP-18, in the assay on SNB-78, with M19-MEL and in the assay with DLD-1 was > 100 µM (inactive) each time.
`COC1=CC23C=CC1[C@@H](c1ccccc1)C2=C(C)C(=O)N3C(=O)NC1CCCCC1` (some centres undefined): the GI50 with SNB-78 was 26.4 µM (inactive); with KM-20L2, 22.2 µM (inactive).
Regarding `CON1C(=O)C2(CCCCC2)C(=O)C12C=CC(C)CC2` (centres undefined), the GI50 in the assay on DMS-273, with XF498, in the assay with LXFL 529, with SNB-78, with KM-20L2 and in the assay with M19-MEL was > 100 µM (inactive) in each case. Further, the GI50 in the assay on RXF 631 is > 100 µM (inactive).
On to `CC1=NN(C(=O)Cc2ccccc2)C(=O)/C1=C\C=C\c1ccccc1`, for which the GI50 in the assay with DMS-273 was > 100 µM (inactive); with XF498, > 100 µM (inactive); in the assay on HOP-18, 14.8 µM (inactive); with SNB-78, 83.6 µM (inactive); in the assay on DLD-1, > 100 µM (inactive).
Turning to `S=c1nc2c(c[nH]1)C1c3ccccc3C2c2ccccc21`, the GI50 in the assay with DMS-273, in the assay on LXFL 529, in the assay on SNB-78, in the assay on KM-20L2 and with M19-MEL was > 100 µM (inactive) in each case.
Turning to `CCCCCCCCCCCC(=O)OCC1OC(n2cc(F)c(=O)[nH]c2=O)C(N)C(O)C1O` (centres undefined), the GI50 was > 100 µM (inactive) in the assay with DMS-273; > 100 µM (inactive) in the assay with LXFL 529; 88.9 µM (inactive) with HOP-18; > 100 µM (inactive) in the assay with SNB-78; 91.4 µM (inactive) with KM-20L2; > 100 µM (inactive) with M19-MEL. The GI50 in the assay on DLD-1 is 71.8 µM (inactive).
`CC(C)(C)C1CCC2(CC1)c1[nH]c3ccccc3c1C1(CCC(C(C)(C)C)CC1)c1[nH]c3ccccc3c12` (centres undefined): the GI50 in the assay with DMS-273, in the assay on XF498, in the assay with LXFL 529, in the assay with HOP-18, in the assay with SNB-78 and in the assay on KM-20L2 was > 100 µM (inactive) each time. The GI50 in the assay with M19-MEL and in the assay on DLD-1 was > 100 µM (inactive) throughout.
`CC1CN(C(=O)CN2CCC(CCCCN(C)C)CC2)c2ccccc2NC1=O` (centres undefined): the GI50 in the assay with DMS-273, with LXFL 529, in the assay with HOP-18, in the assay on KM-20L2, in the assay with M19-MEL and with DLD-1 was > 100 µM (inactive) each time. Also, the GI50 with RXF 631 is > 100 µM (inactive).
`CC1(C)CCc2cc3c(cc2O1)OC(C)(C)C1c2c(ccc4c2CCC(C)(C)O4)OC31` (centres undefined): the GI50 in the assay with DMS-273 was > 100 µM (inactive); in the assay on XF498 it was > 100 µM (inactive); with LXFL 529, > 100 µM (inactive); in the assay with HOP-18, < 0.01 µM (active); in the assay with SNB-78 it was > 100 µM (inactive); in the assay on M19-MEL it was > 100 µM (inactive). Also, the GI50 in the assay on DLD-1 was > 100 µM (inactive).
`CCOC(=O)C(NC(=O)c1nc[nH]c1/N=N/N(C)C)C(C)C` (centres undefined): the GI50 in the assay on DMS-273, in the assay on LXFL 529, in the assay with M19-MEL and with DLD-1 was > 100 µM (inactive) in each case.
With `O=C(O)CP(=S)(S)c1ccccc1` (centres undefined), the GI50 with DMS-273 was > 100 µM (inactive); with XF498 it was > 100 µM (inactive); in the assay on LXFL 529, > 100 µM (inactive); in the assay on SNB-78, > 100 µM (inactive); with KM-20L2 it was > 10 µM (inactive); with M19-MEL, > 100 µM (inactive). For the same compound, in the assay on DLD-1, the GI50 is > 100 µM (inactive).
As to `CCC1=NC(CO)[C@H](c2ccccc2)O1` (some centres undefined), the GI50 with DMS-273, in the assay on XF498, in the assay with HOP-18, with SNB-78, in the assay with KM-20L2 and with M19-MEL was > 100 µM (inactive) each time. In the assay on DLD-1, the GI50 is > 100 µM (inactive).
Regarding `Oc1cc(-c2c[nH]c3ccccc23)nc2cc3c(cc12)OCO3`, the GI50 in the assay with DMS-273 is > 100 µM (inactive); in the assay with XF498 it was 41.6 µM (inactive); with LXFL 529, > 100 µM (inactive); with KM-20L2, > 100 µM (inactive); with M19-MEL it was > 100 µM (inactive); in the assay with DLD-1 it was > 100 µM (inactive). In addition, in the assay on RXF 631, the GI50 was > 100 µM (inactive).
As for `COC(=O)C(C)N(C)C(=O)[C@H](CC(N)=O)N(C)C(=O)[C@@H]1CCCN1C(=O)[C@H](C(C)C)N(C)C(=O)C(C(C)C)N(C)C(=O)[C@@H](NC(=O)OC(C)(C)C)C(C)C` (some centres undefined) (Boc-V[ξNMeV][NMeV]P[NMeN][ξNMeA]-OMe), the GI50 with DMS-273 was 42.1 µM (inactive); in the assay on XF498, > 100 µM (inactive); with LXFL 529, > 100 µM (inactive); in the assay on HOP-18, > 100 µM (inactive); in the assay on SNB-78, > 100 µM (inactive); in the assay with KM-20L2, > 100 µM (inactive). Also, the figures for the GI50 with M19-MEL and in the assay on DLD-1 were > 100 µM (inactive) and 37 µM (inactive), respectively.
Take `COc1ccc2c([nH]c3c(O)c(-c4c(C)cc5c([nH]c6c(CC=C(C)C)c(OC)ccc65)c4O)c(C)cc32)c1CC=C(C)C` [BISMURRAYAFOLINE B]: the GI50 with DMS-273, with LXFL 529, in the assay with HOP-18, in the assay with SNB-78, with KM-20L2 and in the assay with M19-MEL was > 100 µM (inactive) each time. Besides, the GI50 with DLD-1 is > 100 µM (inactive).
